Test results as given in US20230087439A1, “Nmr-Metabolite-Signature For Identifying Cancer Patients Resistant To Cdk4/6 Inhibitors, Endocrine Therapy and Anti-HER2 Therapy” (Olaris, inc., priority 2018, published 2023).
Where “and” joins values, the source holds several entries; their conditions need not be identical. Identical values can stand only once.

Legend:
CYP2A6 = biological target: T1, CYP2A6 (Homo sapiens, UniProt P11509); conditions: off-target effect; cited from earlier work
T1 sequence (P11509 1-494): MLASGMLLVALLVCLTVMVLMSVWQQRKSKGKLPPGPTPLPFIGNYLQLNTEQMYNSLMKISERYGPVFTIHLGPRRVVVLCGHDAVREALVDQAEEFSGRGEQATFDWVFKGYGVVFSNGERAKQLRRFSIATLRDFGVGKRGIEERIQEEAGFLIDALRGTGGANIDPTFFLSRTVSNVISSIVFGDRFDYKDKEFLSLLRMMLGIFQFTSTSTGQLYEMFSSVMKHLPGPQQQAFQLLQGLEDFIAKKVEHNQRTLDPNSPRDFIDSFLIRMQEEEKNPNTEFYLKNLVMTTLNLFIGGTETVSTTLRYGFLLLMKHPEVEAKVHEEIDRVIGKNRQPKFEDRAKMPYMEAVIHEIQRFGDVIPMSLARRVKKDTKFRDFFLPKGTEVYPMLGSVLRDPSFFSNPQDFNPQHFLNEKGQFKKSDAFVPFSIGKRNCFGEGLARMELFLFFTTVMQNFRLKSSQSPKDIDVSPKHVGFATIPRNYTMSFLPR

CYP2C19 = CYP2C19 (Homo sapiens, UniProt P33261); conditions: off-target effect; cited from earlier work
[1] = test system: adenoid cystic carcinomas of the salivary gland; conditions: despite increased expression of c-kit; cited from earlier work
ER+/HER2− metastatic BC = assay: Retrospective study: tumor response and survival of metastatic BC patients treated with CDK4/6 inhibitors; assay type: in vivo, human; conditions: palbociclib N=10, ribociclib N=14; for Non-responders (NR): at least 20% increase in sum of diameters of target tumors after 6 months; for Responders (R): at least 30% decrease in sum of diameters of target tumors after 6 months
Excerpt: Here we describe a retrospective study analyzing plasma-based metabolites from a baseline (BL) sample and after 2-months (2M) of treatment of 24 women with ER+/HER2− metastatic BC treated with CDK4/6 inhibitors, palbociclib or ribociclib.

Chain of CYP2C19 (P33261 whole entry): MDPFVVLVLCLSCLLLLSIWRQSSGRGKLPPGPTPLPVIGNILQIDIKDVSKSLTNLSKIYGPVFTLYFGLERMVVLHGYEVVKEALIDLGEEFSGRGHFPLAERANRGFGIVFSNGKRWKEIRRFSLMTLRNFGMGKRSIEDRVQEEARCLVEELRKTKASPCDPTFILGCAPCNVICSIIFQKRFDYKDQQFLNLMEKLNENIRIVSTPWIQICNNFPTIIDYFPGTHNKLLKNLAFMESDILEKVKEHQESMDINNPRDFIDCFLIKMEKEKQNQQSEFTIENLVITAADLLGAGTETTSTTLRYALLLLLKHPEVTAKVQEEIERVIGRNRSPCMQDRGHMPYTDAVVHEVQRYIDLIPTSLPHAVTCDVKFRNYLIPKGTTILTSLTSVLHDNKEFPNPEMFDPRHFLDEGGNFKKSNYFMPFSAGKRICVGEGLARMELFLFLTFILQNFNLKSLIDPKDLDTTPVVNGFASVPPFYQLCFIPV

Row | Structure (SMILES) | inhibition of CYP2A6 (CYP2A6) | inhibition of CYP2C19 (CYP2C19) | effect on adenoid cystic carcinomas of the salivary gland [1] | Non-responders (NR) (ER+/HER2− metastatic BC) | Responders (R) (ER+/HER2− metastatic BC)
1 | N#Cc1ccc(C(c2ccc(C#N)cc2)n2cncn2)cc1 [letrozole] | inhibits | inhibits |  |  | 
2 | Cc1ccc(NC(=O)c2ccc(CN3CCN(C)CC3)cc2)cc1Nc1nccc(-c2cccnc2)n1 [imatinib] |  |  | no effect |  | 
3 | CC(=O)c1c(C)c2cnc(Nc3ccc(N4CCNCC4)cn3)nc2n(C2CCCC2)c1=O [palbociclib] |  |  |  | 3 patients | 7
4 | CN(C)C(=O)c1cc2cnc(Nc3ccc(N4CCNCC4)cn3)nc2n1C1CCCC1 [ribociclib] |  |  |  | 7 patients and 6 patients | 8
